Experimental data reported in US20160102317A1, “PLANTS HAVING INCREASED TOLERANCE TO HERBICIDES” (BASF SE, priority 2013, published 2016).

Key:
[1] = molecular target: T1, Hordeum HPPD (SEQ ID: 2) F377L (Hordeum vulgare, UniProt O48604, A164G/F377L/R146V/R147D/R148G); test: HPPD activity assay, in vitro characterization of HPPD mutants; format: biochemical; conditions: Table 16, Hordeum wild-type = 1
T1 construct: His (N); made in house; host or cells: E. coli BL21 (DE3)
Protocol: (§1) HPPD produces homogentisic acid and CO2 from 4-hydroxyphenylpyruvate (4-HPP) and 02. The activity assay for HPPD is based on the analysis of homogentisic acid by reversed phase HPLC. The assay mixture can contain 150 mM potassium phosphate buffer pH 7.0, 50 mM L-ascorbic acid, 100 μM Catalase (Sigma-Aldrich), 1 μM FeSO4 and 0.2 units of purified HPPD enzyme in a total volume of 505 μl. 1 unit is defined as the amount of enzyme that is required to produce 1 nmol of HGA per minute at 20° C.
After a preincubation of 30 min the reaction is started by adding 4-HPP to a final concentration of 0.05 mM. The reaction is allowed to proceed for 45 min at room temperature. The reaction is stopped by the addition of 50 μl of 4.5 M phosphoric acid. […]
(§2) 5 μl of the cleared sample is analyzed on an UPLC HSS T3 column (particle size 1.8 μm, dimensions 2.1×50 mm; Waters) by isocratic elution using 90% 20 mM NaH2PO4 pH 2.2, 10% methanol (v/v).
(§3) HGA is detected electrochemically at 750 mV (mode: DC; polarity: positive) and quantified by integrating peak areas (Empower software; Waters).
Inhibitors are dissolved in DMSO (dimethylsulfoxide) to a concentration of 0.5 mM. […] IC50 values are calculated using non-linear regression.
Purified, mutant HPPD enzymes are obtained by the methods described above. […] Weighted means (by standard error) of Km and IC50 values are calculated from at least three independent experiments. […]

Picrophilus HPPD = test: HPPD activity assay, tolerance index; format: biochemical, Picrophilus torridus; conditions: Table 12, normalized to reference SEQ ID NO:53
Protocol: as §1
(§4) After a preincubation of 30 min the reaction is started by adding 4-HPP to a final concentration of 0.05 mM. The reaction is allowed to proceed for 45 min at room temperature. The reaction is stopped by the addition of 50 μl of 4.5 M phosphoric acid. The sample is filtered using a […] pore size PVDF filtration device.
as §2, §3
(§5) Inhibitors are dissolved in DMSO (dimethylsulfoxide) to a concentration of 0.5 mM. From this stock solution serial five-fold dilutions are prepared in DMSO, which are used in the assay. […] IC50 values are calculated using non-linear regression. […]

Synechococcus HPPD = test: HPPD activity assay, tolerance index; format: biochemical; conditions: Table 12, normalized to reference SEQ ID NO:53
Protocol: as §1, §4, §2, §3
(§6) Inhibitors are dissolved in DMSO (dimethylsulfoxide) to a concentration of 0.5 mM. From this stock solution serial five-fold dilutions are prepared in DMSO, which are used in the assay. The respective inhibitor solution accounts for 1% of the assay volume. Thus, final inhibitor concentrations range from 5 μM to 320 μM, respectively. […] IC50 values are calculated using non-linear regression.
(§7) Using methods which are described in the above examples or well known in the art, purified, recombinant wild-type HPPD enzymes are characterized with respect to their kinetic properties and sensitivity towards HPPD inhibiting herbicides. Apparent michaelis constants (Km) and maximal reaction velocities (Vmax) are calculated by non-linear regression with the software GraphPad Prism 5 (GraphPad Software, La Jolla, USA) using a substrate inhibition model. […] Weighted means (by standard error) of Km and IC50 values are calculated from at least three independent experiments. […]

[2] = test system: Rhodococcus HPPD (Seq ID 46); test: HPPD activity assay, tolerance index; format: biochemical; conditions: Table 12; Rhodococcus (Seq ID 46); normalized to reference SEQ ID NO:53
Protocol: as §1, §4, §2, §3, §6, §7

[3] = test system: Rhodococcus HPPD (Seq ID 44); test: HPPD activity assay, tolerance index; format: biochemical; conditions: Table 12; Rhodococcus (Seq ID 44); normalized to reference SEQ ID NO:53
Protocol: as §1, §4, §2, §3, §6, §7

HPPD Seq ID 67 = test: HPPD activity assay, tolerance index; format: biochemical, Zea mays; conditions: Table 12, normalized to reference SEQ ID NO:53
Protocol: as §1, §4, §2, §3, §5

HPPD Seq ID 69 = test: HPPD activity assay, tolerance index; format: biochemical, Zea mays; conditions: Table 12, normalized to reference SEQ ID NO:53
Protocol: as §1, §4, §2, §3, §5

T1 sequence (O48604 whole entry R146V/R147D/R148G/A164G/F377L): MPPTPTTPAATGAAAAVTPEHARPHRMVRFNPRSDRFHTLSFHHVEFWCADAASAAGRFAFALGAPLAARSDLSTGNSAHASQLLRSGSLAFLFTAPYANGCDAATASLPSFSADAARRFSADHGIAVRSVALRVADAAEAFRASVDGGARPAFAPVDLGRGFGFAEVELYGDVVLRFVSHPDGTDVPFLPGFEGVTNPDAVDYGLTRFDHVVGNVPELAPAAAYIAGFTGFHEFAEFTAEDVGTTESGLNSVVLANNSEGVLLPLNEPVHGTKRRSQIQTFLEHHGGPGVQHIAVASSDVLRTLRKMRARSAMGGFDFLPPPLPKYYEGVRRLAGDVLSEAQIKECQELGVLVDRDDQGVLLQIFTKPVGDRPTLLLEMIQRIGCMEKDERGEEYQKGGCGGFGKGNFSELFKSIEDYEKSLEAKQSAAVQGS

| SMILES | TI Inhibitor 2 (normalized tolerance index) [1] | TI Inhibitor 1 (normalized tolerance index) (Picrophilus HPPD) | TI Inhibitor 1 (normalized tolerance index) (Synechococcus HPPD) | TI Inhibitor 1 (normalized tolerance index) [2] | TI Inhibitor 1 (normalized tolerance index) [3] | TI Inhibitor 1 (normalized tolerance index) (HPPD Seq ID 67) | TI Inhibitor 1 (normalized tolerance index) (HPPD Seq ID 69) |
| --- | --- | --- | --- | --- | --- | --- | --- |
| Cc1c(C(=O)Nc2nnnn2C)ccc2c1C(=O)C(C)(C)CS2(=O)=O [Inhibitor 2, 3,3,5-trimethyl-N-(1-methyltetrazol-5-yl)-1,1,4-trioxo-2H-thiochromene-6-carboxamide] | 4.6 |  |  |  |  |  |  |
| COc1no[nH]/c1=N/C(=O)c1ccc2c(c1Cl)S(=O)(=O)CCC2(C)C [Inhibitor 1, (NE)-8-chloro-N-(4-methoxy-1,2,5-oxadiazol-3-ylidene)-4,4-dimethyl-1,1-dioxo-2,3-dihydrothiochromene-7-carboxamide] |  | 0.4 | 11.9 | 1.2 | 25.2 | 107.3 | 13.2 |
